In PMC9304124 (Clinical Pharmacology in Drug Development, 2022):
Like-named read-outs stand apart in the source and are kept apart here.

What was measured:
[1] = Steady-state plasma PK of NE and EE, NE/EE given alone or with trametinib (phase 1 DDI study); conditions: for AUC(0-t): AUClast; for AUC: AUCtau
[2] = basis for study design, no reference given; cited from earlier work
[3] = design: method as in PMID 23971497; conditions: human plasma; cited from earlier work
phospho‐MEK1 = tested on: phospho‐MEK1; design: method as in PMID 23971497; conditions: in vitro; read-out: half maximal inhibitory concentration to inhibit phospho‐MEK1; cited from earlier work
clinical = conditions: female, human, plasma, oral
CYP3A4 [4] = tested on: CYP3A4; design: method as in PMID 24748562; conditions: in vitro; read-out: EC50 for CYP3A4 mRNA induction; cited from earlier work
[5] = design: method as in Novartis, unpublished data; conditions: ref Novartis, unpublished data; cited from earlier work
CYP3A4 [6] = tested on: CYP3A4; design: method as in PMID 26347206, PMID 31445021; conditions: in vitro; cited from earlier work
[7] = cited from earlier work
CYP2D6 = tested on: CYP2D6; design: method as in PMID 26347206, PMID 31445021; conditions: in vitro; cited from earlier work
CYP2A6 = tested on: CYP2A6; design: method as in PMID 26347206, PMID 31445021; conditions: in vitro; cited from earlier work
CYP3A4 [8] = conditions: in vitro, cited from earlier work
[9] = overall study, N = 19
[10] = Steady-state plasma PK of trametinib and metabolite M5 when coadministered with NE/EE; conditions: trametinib 2 mg daily + NE/EE, day 21, plasma
Method: Both regimens were continued until day 21 (Figure 1).
Extracts were analyzed using LC‐MS/MS.

CYP2B6 = tested on: CYP2B6; design: method as in PMID 26347206, PMID 31445021; conditions: in vitro; cited from earlier work
CYP1A2 = tested on: CYP1A2; design: method as in PMID 26347206, PMID 31445021; conditions: in vitro; cited from earlier work
UGT1A1 = tested on: UGT1A1; design: method as in PMID 26347206, PMID 31445021; conditions: in vitro; cited from earlier work
[11] = female, human, plasma, oral, adjusted geo‐mean, NE/EE + T, linear mixed-effects model
[12] = female, human, plasma, oral, adjusted geo‐mean, NE/EE alone, linear mixed-effects model
[13] = female, human, plasma, oral, geo‐mean (geo‐CV%), NE/EE alone, day 5, plasma
[14] = female, human, plasma, oral, mean (SD), NE/EE alone, day 5, plasma

Structure (SMILES): C#C[C@]1(O)CC[C@H]2[C@@H]3CCc4cc(O)ccc4[C@H]3CC[C@@]21C [EE, ethinyl estradiol]
- Ctrough, mean (SD) ([1]; NE/EE alone, day 5, plasma): 22.2 (12.6) pg/mL
- AUCtau, adjusted geo‐mean ([1]; NE/EE alone, linear mixed-effects model): 1.06 ng·h/mL
- AUC(0-t) [1, 11]: 1.07 ng·h/mL
- AUC(0-t) [1, 12]: 1.02 ng·h/mL
- AUC(0-t) [1, 13]: 0.983 ng·h/mL
- AUC(0-t) [1, 14]: 1.15 ng·h/mL
- AUC [1, 11]: 1.12 ng·h/mL
- AUC ([1]; female, human, plasma, oral, geo‐mean (geo‐CV%), NE/EE alone (1 mg NE/0.035 mg EE daily), day 5, plasma): 1.02 ng·h/mL
- AUC [1, 14]: 1.16 ng·h/mL
- Cmax [1, 11]: 0.128 ng/mL
- Cmax [1, 12]: 0.14 ng/mL
- Cmax [1, 13]: 0.135 ng/mL
- Cmax [1, 14]: 0.151 ng/mL
- Tmax ([1]; female, human, plasma, oral, tmax, median (range), NE/EE alone, day 5, plasma): 0.98 h
- mean t1/2 [2]: 20 h

Structure (SMILES): Cc1c(=O)n(C)c(Nc2ccc(I)cc2F)c2c(=O)n(C3CC3)c(=O)n(-c3cccc(N)c3)c12 [M5]
- share of drug‐related material in plasma [3]: < 11%
- IC50 (phospho‐MEK1): 9 ± 1 nM

Structure (SMILES): C#C[C@]1(O)CC[C@H]2[C@@H]3CCC4=CC(=O)CC[C@@H]4[C@H]3CC[C@@]21C [NE, norethindrone]
- CL/F, geo‐mean (geo‐CV%) ([1]; NE/EE alone, day 5, plasma): 9.41 (76.9) L/h
- Ctrough, geo‐mean (geo‐CV%) ([1]; NE/EE alone, day 5, plasma): 1060 (165.5) pg/mL
- Ctrough, mean (SD) ([1]; NE/EE alone, day 5, plasma): 1940 (2850) pg/mL
- tmax, median (range) ([1]; NE/EE alone, day 5, plasma): 1.00 (0.50‐24) h
- AUC(0-t) [1, 11]: 127 ng·h/mL
- AUC(0-t) [1, 12]: 106 ng·h/mL
- AUC [1, 11]: 131 ng·h/mL
- AUC [1, 12]: 110 ng·h/mL
- Cmax [1, 11]: 17.1 ng/mL
- Cmax [1, 12]: 15.2 ng/mL
- half-life ([1]; female, human, plasma, oral, t½, median (range), NE/EE alone, day 5, plasma): 9.22 h
- Tmax (clinical): 1.02 h
- half-life (clinical): 9.06 h

Structure (SMILES): CC(=O)Nc1cccc(-n2c(=O)n(C3CC3)c(=O)c3c(Nc4ccc(I)cc4F)n(C)c(=O)c(C)c32)c1 [trametinib, Trametinib]
- findings in animal reproduction studies (in words) [5]: maternal and developmental toxicities
- CYP3A4 inhibition (in words) (CYP3A4 [6]): no inhibitory activity
- peak:trough ratio ([7]; 2 mg once daily): 1.8
- time to reach Cmax (tmax) ([7]; 2 mg once daily): 1.5 h
- clinically relevant systemic exposure (concentration) ([7]; based on the Cmax of 22.2 ng/mL): ≈ 0.04 μM
- intrasubject variability [7]: more than 30%
- geo‐mean AUC0‐24 ([7]; trametinib 2 mg in the absence of COC): 370 ng·h/mL
- CYP2D6 inhibition (in words) (CYP2D6): no inhibitory activity
- CYP2A6 inhibition (in words) (CYP2A6): no inhibitory activity
- maximal effect of CYP3A4 induction, % of that of rifampicin (CYP3A4 [8]; hepatocytes, ref Novartis, unpublished data): 69%
- EC50 (CYP3A4 [8]; hepatocytes, ref Novartis, unpublished data, read-out: EC50 for CYP3A4 induction): 1700 nM
- CYP3A4 induction (in words) (CYP3A4 [8]): low‐level inducer
- AE of special interest: patients with bleeding events [9]: 15.8%
- AE of special interest: patients with cardiac‐related event [9]: 5.3%
- AE of special interest: patients with hepatic disorders [9]: 26.3%
- AE of special interest: patients with hypertension [9]: 15.8%
- AE of special interest: patients with skin toxicity [9]: 63.2%
- Cmax, geo‐mean (geo‐CV%) [10]: 27.4 (35.4) ng/mL
- CYP2B6 inhibition (in words) (CYP2B6): no inhibitory activity
- CYP1A2 inhibition (in words) (CYP1A2): no inhibitory activity
- IC50 (phospho‐MEK1): 7 ± 0.1 nM
- UGT1A1 inhibition (in words) (UGT1A1): inhibitor
